Test results taken from patent US12012637B2 (University of South Florida, priority 2017, dated 2024).

Key:
LIN28B [1] = assay: Dual immunofluorescence staining of LIN28B and GLUT1 in IH sections from propranolol-treated patients; type: in vivo, human
Experimental: Paraffin embedded infantile hemangioma and placenta sections (10 μm) were immunostained with primary antibodies against LIN28B 40 ug/ml (Abcam Cat #ab71415, RRID:AB_2135050) and GLUT1 3.4 ug/ml (Abcam Cat #ab40084, RRID:AB_2190927) overnight at 4° C. Sections were washed 3 times in PBS and incubated with 4 ug/ml secondary antibody Alexa Fluor 488 (Life Technologies Cat #a21202, RRID:AB_141607) for GLUT1 and alexa fluor cy3 (Life Technologies Cat #a10520, RRID:AB_2534029) for LIN28B for 30 minutes at room temperature. The sections were then washed with PBS and mounted with ProLong Diamond Antifade Mountant with DAPI, (Invitogen). Confocal images were obtained using an Olympus FV 1200 instrument. Immunofluorescence intensities were measured using ImageJ software as described^33. Fluorescence intensities were normalized to background intensities of secondary antibody only controls.

LIN28B [2] = assay: Immunoblot of LIN28B in propranolol-treated iPSCs; type: cell-based, human; settings: 50 μM, 72 h, vs vehicle control
Experimental: (§1) Briefly, freshly dissected IH tissues were digested in 0.2% collagenase A (Roche Diagnostics, Indianapolis, IN). […] HemSCs were maintained in EBM-2 SingleQuot media Supplemented with 20% FBS.
Immunoblot analyses were performed as previously described^34 using 24 ng/ml antibodies against GAPDH (Cell Signaling Technology Cat #2118L RRID:AB_561053), […] antibodies against LIN28B (Abcam Cat #ab71415 RRID:AB_2135050) followed by IRDye 680 donkey anti-rabbit IGG secondary antibodies (0.2 μg/ml, LI-COR, 926-68073 RRID: AB_10954442). Immunoblots were imaged using the Odyssey Infrared Imaging System (LI-COR) and quantified using Image Studio software (LI-COR).

iPSCs [3] = assay: qRT-PCR analysis of miRNAs and genes in propranolol-treated iPSCs; type: cell-based, human; settings: 50 μM
iPSCs [4] = assay: mRNA sequencing (RNAseq) and gene set enrichment analysis of propranolol-treated iPSCs; type: cell-based, human; settings: 50 μM
Experimental: as §1
The cDNA library preparation was completed by second strand synthesis using SuperScript III, alkaline RNA hydrolysis, and PCR amplification for 10 cycles. mRNA libraries were prepared by utilizing the Illumina TruSeq Stranded mRNA LT protocol using 500 ng total RNA and NEB's Protoscript II reverse transcriptase for the first-strand cDNA synthesis according to the manufacturer's protocol. Individual RNAseq libraries were quality controlled on an Agilent TapeStation with a High Sensitivity D1000 ScreenTape. […] The libraries were sequenced on an Illumina NextSeq 500 sequencer 75-bp paired-end in mid-output mode in the Genomics Core Facility of The Rockefeller University.
The miRNA read annotation for sRNAseq experiments was performed as previously described^36, 37 using an slightly updated, manually curated miRNA reference based on previous work 38. […] The RNAseq data was aligned to the Human Genome Build 38 using the STAR aligner^40 (version 2.0.4j) allowing for two mismatches.
All data were tested for normality.

iPSCs [5] = assay: WST1 proliferation assay; type: cell-based, human; settings: 50 μM, 72 hours
Experimental: iPSCs were grown in 6 well plates and split 1:10 at 3-day intervals. […] WST1 proliferation assays were performed as previously described^29.

iPSCs [6] = assay: Bright field morphology of propranolol-treated iPSCs; type: cell-based, human; settings: 50 μM, 72 h, compared to control
mir-498(46) = settings: previous work (ref. 7); cited from earlier work
hemangioma stem cells = settings: cited from earlier work
iPSCs [7] = assay: sRNAseq analysis of miRNA cistrons in propranolol-treated iPSCs
[8] = iPSCs, 50 μM, 72 h, vs vehicle control

CC(C)NCC(O)COc1cccc2ccccc12 (centres unmarked) [Propranolol]
LIN28B and GLUT1 immunostaining (LIN28B [1]; propranolol-treated proliferative IH compared to untreated proliferative IH): markedly decreased | LIN28B to GLUT1 immunofluorescence signal intensity, increase in proliferative IH compared to propranolol treated IH (LIN28B [1]; untreated proliferative IH vs propranolol treated IH samples): ~2 fold | decrease in LIN28B protein levels (LIN28B [2]): 2.3 fold | SERPINE1 increased expression (qRT-PCR) (iPSCs [3]; 72 h): 8.4 fold | TWIST1 increased expression (qRT-PCR) (iPSCs [3]; 72 h): 5 fold | LIN28B mRNA levels (iPSCs [3]; 72 h, data not shown): no significant differences | increase in let-7a expression (qRT-PCR) (iPSCs [3]; 72 hr): > 1. 65 fold | miR-515-5p expression (qRT-PCR) (iPSCs [3]; 72 hr): significant reduction | miR-517a expression (qRT-PCR) (iPSCs [3]; 72 hr): significant reduction | miR-518C expression (qRT-PCR) (iPSCs [3]; 72 hr): significant reduction | miR-519d expression (qRT-PCR) (iPSCs [3]; 72 hr): significant reduction | SERPINE1 increase (RNAseq) (iPSCs [4]; 72 h): 12 fold | TWIST1 increase (RNAseq) (iPSCs [4]; 72 h): 2.9 fold | gene set analysis: TGF-β signaling pathway (iPSCs [4]; 72 h, FDR 0.06): upregulation | gene set analysis: adipogenesis pathway (iPSCs [4]; 72 h, FDR 0.09): upregulation | gene set analysis: E2F targets (iPSCs [4]; 72 h, FDR<0.25): downregulation | gene set analysis: G2M checkpoint (iPSCs [4]; 72 h, FDR<0.25): downregulation | gene set analysis: mitotic spindle pathway (iPSCs [4]; 72 h, FDR<0.25): downregulation | gene set enrichment: genes defining EMT (iPSCs [4]; 72 h vs control, FDR 0.00046): enrichment | decrease in cell proliferation (iPSCs [5]): 33% | EMT associated morphological changes (iPSCs [6]): more elongated cellular shape | levels of mir-498(46) in propranolol-treated IH tumors vs proliferative IH (mir-498(46)): significantly lower levels | adipogenesis in hemangioma stem cells (hemangioma stem cells): induce adipogenesis | downregulation of mir-498(46) (iPSCs [7]; [8]): 1.6 fold | increase in expression of cistron mir-98(13) (iPSCs [7]; [8]): 3.2 fold | Normalized frequency, cistron mir-10a(1) (iPSCs [7]; propranolol-treated iPSCs): 0.0168% | Normalized frequency, cistron mir-10b(1) (iPSCs [7]; propranolol-treated iPSCs): 0.0176% | Normalized frequency, cistron mir-21(1) (iPSCs [7]; propranolol-treated iPSCs): 10.5844% | Normalized frequency, cistron mir-33b(1) (iPSCs [7]; propranolol-treated iPSCs): 0.002% | Normalized frequency, cistron mir-98(13) (iPSCs [7]; propranolol-treated iPSCs): 0.2313% | Normalized frequency, cistron mir-188(8) (iPSCs [7]; propranolol-treated iPSCs): 0.1459% | Normalized frequency, cistron mir-488(1) (iPSCs [7]; propranolol-treated iPSCs): 0.0022% | Normalized frequency, cistron mir-498(46) (iPSCs [7]; propranolol-treated iPSCs): 0.4075% | Normalized frequency, cistron mir-1226(1) (iPSCs [7]; propranolol-treated iPSCs): 0% | Normalized frequency, cistron mir-3155(1) (iPSCs [7]; propranolol-treated iPSCs): 0.0014%
